Test results taken from patent US8454982B2, “Stable S-(+)-abscisic acid liquid and soluble granule formulations” (Valent BioSciences Corporation, priority 2007, dated 2013).

Legend:
[1] = tested on: Coleus plants; assay: Greenhouse Coleus wilting (drought tolerance, shelf life); format: in vivo
Method: ABA formulation performance was evaluated in the greenhouse using Coleus wilting to assess efficacy. Treatments consisted of control, ABA technical (95% ABA solubilized in ethanol), ABA liquid formulation, and ABA water-soluble granule formulation. Coleus plants were grown in four-inch diameter pots to the 6 to 8 leaf stage (n=4 plants/treatment). Water (15 mL/plant) was drench-applied to the control plants, and ABA (15 mL/plant; 250 ppm ABA) was drench applied to ABA treated plants. The plants were held in a greenhouse without irrigation until all plants wilted to a point when they were determined to be unmarketable. The plants were rated daily for the extent of wilting on a scale from 1 (no wilting) to 4 (complete wilting). A rating of 2.5 was the point at which a plant was determined to be unmarketable and the previous day was recorded as the marketable life of that plant in days.

[2] = tested on: Flame Seedless grapes; assay: Field table grape coloration; format: in vivo; details: for Number of colored clusters per 4 vines: foliar, 200 gallons/acre
Method: ABA formulation performance was evaluated in the field using table grape coloration to assess efficacy. Treatments consisted of untreated control, ethephon control (industry standard ethylene-releasing agent), ABA technical (95% ABA solubilized in ethanol), ABA liquid formulation, and ABA water-soluble granule formulation. All treatments had 0.05% v/v Latron B-1956 surfactant included. The three ABA treatments (200 ppm ABA; 200 gallons/acre) and the ethephon control (250 ppm at 200 gallons/acre) were foliar applied with a backpack sprayer at 10 to 20% color development (June 27) on Flame Seedless grapes commercially grown in Arvin, Calif. The numbers of color clusters per 4 vines were assessed at 8 and 11 days after treatment.

Structure (SMILES) | Days of shelf life after treatment ([1]; drench 15 mL/plant, 250 ppm ABA, no irrigation) [days] | Coleus wilting / shelf life, comparison ([1]; in vivo) | Number of colored clusters per 4 vines ([2]; 8 days after treatment) | Number of colored clusters per 4 vines ([2]; 11 days after treatment) | Number of colored clusters, comparison ([2]; in vivo)
CC1=CC(=O)CC(C)(C)[C@@]1(O)/C=C/C(C)=C\C(=O)O [ABA technical, S-(+)-abscisic acid] | 12 | delayed wilting and increased shelf life of Coleus plants | 9.0 | 11.2 | increased the number of colored clusters more than the ethephon control
O=P(O)(O)CCCl [Ethephon control, ethephon, reference compound] |  |  | 6.0 | 6.7 | 
